# Like-named read-outs stand apart in the source and are kept apart here.
# Key:
# [1] = test system: RIP2 kinase-dependent cytokine production (TNFα) in human whole blood; experiment: MDP-stimulated human whole blood cytokine (TNFα) production assay; assay type: cell-based; details: inhibition of TNFα, MDP 100 ng/mL, 6 hr, mean of minimum 2 experiments
# Procedure: A muramyl dipeptide (MDP)-stimulated human whole blood cytokine production assay was developed to evaluate the cellular potency and efficacy of novel test compounds. Heparinized blood (160 μL) obtained from healthy human volunteers was dispensed into individual wells of a multiwell plate. Test compounds were dissolved in 100% DMSO and diluted in calcium- and magnesium-free D-PBS to prepare 10× working stock solutions. Twenty microliters of diluted test compound was added per well and the plates were placed on a plate shaker (500 rpm) and incubated for 30 min in a humidified incubator (37° C., 5% CO2). A 10× working stock of MDP was prepared in sterile, endotoxin-free water containing 1% DMSO. Twenty microliters of the MDP stock solution was added per well (final conc.=100 ng/mL) to stimulate RIP2 kinase-dependent cytokine production. The final concentration of DMSO was 0.1% (v/v) in all wells. Plates were incubated for an additional 6 hr (as noted above). Then an additional 100 μL of D-PBS (Dulbecco's phosphate-buffered saline) was added/well, the plates were centrifuged, and supernatants collected. TNFα levels in the supernatants were quantified using a commercial immunoassay (MesoScale Discovery). Test compound inhibition was expressed as percent (%) inhibition of internal assay controls. For concentration/dose response experiments, normalized data were fit and pIC50s determined using conventional techniques. The pIC50s are averaged to determine a mean value, for a minimum of 2 experiments.
# [2] = target: T1, RIPK2 (full length FLAG His tagged) (Homo sapiens, UniProt O43353); experiment: Fluorescent polarization based binding assay at the ATP binding pocket of RIPK2; details: RIPK2 FP binding
# T1 construct: Full length FLAG His tagged RIPK2 was purified from a Baculovirus expression system; FLAG (N); 6His (N); made in house; host or cells: Spodoptera frugiperda (Sf9) insect cells, baculovirus
# Text: A fluorescent polarization based binding assay was developed to quantitate interaction of novel test compounds at the ATP binding pocket of RIPK2, by competition with a fluorescently labeled ATP competitive ligand. Full length FLAG His tagged RIPK2 was purified from a Baculovirus expression system and was used at a final assay concentration of twice the KDapparent. A fluorescent labeled ligand (5-({[2-({[3-({4-[(5-hydroxy-2-methylphenyl)amino]-2-pyrimidinyl}amino)phenyl]carbonyl}amino)ethyl]amino}carbonyl)-2-(6-hydroxy-3-oxo-3H-xanthen-9-yl)benzoic acid, prepared as described in WO2011/120025) was used at a final assay concentration of 5 nM. Both the enzyme and ligand were prepared in solutions in 50 mM HEPES pH7.5, 150 mM NaCl, 10 mM MgCl2, 1 mM DTT, and 1 mM CHAPS. Test compounds were prepared in 100% DMSO and 100 nL was dispensed to individual wells of a multiwell plate. Next, 5 ul RIPK2 was added to the test compounds at twice the final assay concentration, and incubated at rt for 10 min. Following the incubation, 5 ul of the fluorescent labeled ligand solution, was added to each reaction, at twice the final assay concentration, and incubated at rt for at least 10 min. Finally, samples were read on an instrument capable of measuring fluorescent polarization. Test compound inhibition was expressed as percent (%) inhibition of internal assay controls.
# For concentration/dose response experiments, normalized data were fit and pIC50s determined using conventional techniques. The pIC50s are averaged to determine a mean value, for a minimum of 2 experiments.
# Full-length human RIPK2 (receptor-interacting serine-threonine kinase 2) cDNA was purchased from Invitrogen (Carlsbad, Calif., USA, Clone ID:IOH6368, RIPK2-pENTR 221). Gateway® LR cloning was used to site-specifically recombine RIPK2 downstream to an N-terminal FLAG-6His contained within the destination vector pDEST8-FLAG-His6 according to the protocol described by Invitrogen. Transfection into Spodoptera frugiperda (Sf9) insect cells was performed using Cellfectin® (Invitrogen), according to the manufacturer's protocol.
# 337 member kinase panel = experiment: Kinome selectivity, in vitro profiling (Reaction Biology Corporation); assay type: biochemical; details: compound at 1 μM
# Procedure: Kinome selectivity (as conducted by Reaction Biology Corporation, One Great Valley Parkway, Malvern, Pa., USA, 19355, http://www.reactionbiology.com) for the compound of Example 2 (6-(tert-butylsulfonyl)-N-(4,5-dimethyl-1H-pyrazol-3-yl)-7-ethoxyquinazolin-4-amine) was determined via in vitro profiling against a 337 member kinase panel.
# [3] = test system: isolated rabbit left ventricular wedge preparation; experiment: Rabbit cardiac wedge preparation (ECG and isometric contractile force); details: for TdP Score: BCL=2000 ms, score range −2 to 14; for TdP Score / ICF (% change), contractility / QRS / QT / Tp-e (msec), transmural dispersion / Δ QT %: mean, n = 2; for Proarrhythmia: preparations affected of n = 2
# Procedure: Female rabbits weighing 2.2-3 kg were anticoagulated with heparin and anesthetized with pentobarbital (50 mg/kg, i.v.). The chest was opened via a left thoracotomy, and the heart was excised and placed in a cardioplegic solution consisting of cold (4° C.) normal Tyrode's solution. A transmural wedge with dimensions of approximately 1.5 cm wide and 2-3 cm long was dissected from the left ventricle.
# The wedge tissue was cannulated via the left anterior descending artery or the circumflex artery and perfused with cardioplegic solution. The preparation was then placed in a small tissue bath and arterially perfused with Tyrode's solution (T: 35.7±0.1° C., perfusion pressure: 30-45 mmHg). The ventricular wedge was allowed to equilibrate in the tissue bath until electrically stable, usually one hour. The preparations were stimulated at basic cycle lengths (BCL) of 1000 and 2000 msec using bipolar silver electrodes insulated except at the tips and applied to the endocardial surface.
# A transmural electrocardiogram (ECG) was recorded in all experiments using extracellular silver/silver chloride electrodes placed in the Tyrode's solution bathing the preparation 1.0 to 1.5 cm from the epicardial and endocardial surfaces, along the same vector as the transmembrane recordings (Epi: “+” pole). On the ECG, transmural dispersion of repolarization (TDR) was defined by the interval between the end and the peak of T wave (Tp-e). The QT interval was defined as the time from the onset of the QRS to the point at which the final downslope of the T wave crossed the isoelectric line. QRS, QT, and Tp-e durations are measured for 10 sweeps and averaged per treatment. Data from total population of animals is averaged per treatment, and compared to average control values.
# isometric contractile force generation (% ICF) is measured for 10 sweeps and averaged per treatment. Data from total population of animals is averaged per treatment, and compared to average control values.
# Each test compound was prepared in 100% DMSO at a stock concentration of 30 mM. Compound was diluted to the highest concentration tested into Tyrode's buffer (containing in mM: 129 NaCl, 4 KCl, 0.9 NaH2PO4, 20 NaHCO3, 1.8 CaCl2, 0.5 MgSO4, and 5.5 glucose, pH 7.4 when buffered with 95% O2 and 5% CO2) from which subsequent serial dilutions were prepared.
# Each test compound was tested at 4 concentrations, from 1-30 μM. After the wedge preparations were perfused with normal Tyrode's solution and stimulated at a BCL of 1000 msec for one hour, stimulation frequency was reduced to a BCL of 2000 msec for a 5 minute period of stabilization after which baseline ECG and isometric contractile force (ICF) were recorded. The preparations were then returned to a BCL of 1000 msec and perfused with Tyrode's solution containing a test compound. For each test compound concentration, wedge preparations were perfused for 20 minutes at a BCL of 1000 msec followed by 5 minutes at a BCL of 2000 msec during which ECG and ICF were recorded. The compound of Example 2 (6-(tert-butylsulfonyl)-N-(4,5-dimethyl-1H-pyrazol-3-yl)-7-ethoxyquinazolin-4-amine) was evaluated in the rabbit cardiac wedge preparation. The four major readouts from the wedge preparation include QT prolongation, torsadogenicity (TdP score derived from QT, Tp-e and early after depolarizations), impulse conduction (QRS-related) and contractility, which are presented in Table 2.
# A scoring system was used for the estimate of risk of a compound for the relative TdP risk using the isolated rabbit left ventricular wedge preparation: points for the QT interval, the Tp-e/QT ratio. The TdP score was generated by first converting the QT interval and Tp-e/QT ratio to % change from baseline. These values are individually assigned a TdP score based on the following system: <−5%=−1, −5% to 10%=0, 10% to 20%=1, 20% to 30%=2, >30%=3. Total scoring system range is −2 to 14 at BCL=2000 ms.
# [4] = mean of minimum 2 experiments, read-out: pIC50 (converted)
# [5] = updated average after continued testing, read-out: average pIC50 after continued testing (converted)
# T1 sequence (O43353 whole entry): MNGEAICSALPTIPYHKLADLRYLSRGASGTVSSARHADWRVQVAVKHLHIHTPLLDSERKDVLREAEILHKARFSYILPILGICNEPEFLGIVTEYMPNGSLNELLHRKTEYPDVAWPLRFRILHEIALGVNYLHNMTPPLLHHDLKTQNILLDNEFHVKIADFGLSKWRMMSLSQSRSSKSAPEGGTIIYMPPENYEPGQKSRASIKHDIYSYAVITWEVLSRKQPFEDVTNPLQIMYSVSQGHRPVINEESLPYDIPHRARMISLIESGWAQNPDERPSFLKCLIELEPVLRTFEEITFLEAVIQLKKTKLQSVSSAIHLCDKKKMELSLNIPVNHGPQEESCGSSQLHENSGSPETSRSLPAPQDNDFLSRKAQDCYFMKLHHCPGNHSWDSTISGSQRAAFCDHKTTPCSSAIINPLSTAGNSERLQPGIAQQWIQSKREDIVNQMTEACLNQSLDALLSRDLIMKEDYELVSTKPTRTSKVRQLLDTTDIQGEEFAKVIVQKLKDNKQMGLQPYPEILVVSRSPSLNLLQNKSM
compound,measurement,setting,value
"COCCOc1cc2ncnc(Nc3n[nH]c(C)c3C)c2cc1S(=O)(=O)C(C)(C)C [Example 1, 6-(tert-Butylsulfonyl)-N-(4,5-dimethyl-1H-pyrazol-3-yl)-7-(2-methoxyethoxy)quinazolin-4-amine]",IC50,[1],39.8 nM
same,IC50,[2]; [4],39.8 nM
same,IC50,[2]; [5],31.6 nM
"CCOc1cc2ncnc(Nc3n[nH]c(C)c3C)c2cc1S(=O)(=O)C(C)(C)C [Example 2, 6-(tert-Butylsulfonyl)-N-(4,5-dimethyl-1H-pyrazol-3-yl)-7-ethoxyquinazolin-4-amine]",IC50,[1],63.1 nM
same,"number of kinases with >50% inhibition, of 337 kinases tested",337 member kinase panel,4
same,"number of kinases with >70% inhibition, of 337 kinases tested",337 member kinase panel,1
same,TdP Score,[3]; 1 μM,−0.50
same,"ICF (% change), contractility",[3]; 1 μM,−4.4%
same,QRS,[3]; 1 μM,39.6 ms
same,QT,[3]; 1 μM,346.4 ms
same,"Tp-e (msec), transmural dispersion",[3]; 1 μM,71.9 ms
same,Δ QT %,[3]; 1 μM,3%
same,Proarrhythmia,[3]; 1 μM,0/2
same,TdP Score,[3]; 3 μM,0.00
same,"ICF (% change), contractility",[3]; 3 μM,−5.3%
same,QRS,[3]; 3 μM,39.2 ms
same,QT,[3]; 3 μM,351.9 ms
same,"Tp-e (msec), transmural dispersion",[3]; 3 μM,73.2 ms
same,Δ QT %,[3]; 3 μM,4.8%
same,Proarrhythmia,[3]; 3 μM,0/2
same,TdP Score,[3]; 10 μM,−0.50
same,"ICF (% change), contractility",[3]; 10 μM,−15.1%
same,QRS,[3]; 10 μM,39.4 ms
same,QT,[3]; 10 μM,348.8 ms
same,"Tp-e (msec), transmural dispersion",[3]; 10 μM,68.4 ms
same,Δ QT %,[3]; 10 μM,4.0%
same,Proarrhythmia,[3]; 10 μM,0/2
same,TdP Score,[3]; 30 μM,−0.50
same,"ICF (% change), contractility",[3]; 30 μM,−20.7%
same,QRS,[3]; 30 μM,39.7 ms
same,QT,[3]; 30 μM,348.8 ms
same,"Tp-e (msec), transmural dispersion",[3]; 30 μM,69.1 ms
same,Δ QT %,[3]; 30 μM,4.0%
same,Proarrhythmia,[3]; 30 μM,0/2
same,IC50,[2]; [4],15.8 nM
"CCCOc1cc2ncnc(Nc3n[nH]c(C)c3C)c2cc1S(=O)(=O)C(C)(C)C [Example 3, 6-(tert-Butylsulfonyl)-N-(4,5-dimethyl-1H-pyrazol-3-yl)-7-propoxyquinazolin-4-amine]",IC50,[1],100 nM
same,IC50,[2]; [4],12.6 nM
same,IC50,[2]; [5],7.94 nM
"Cc1[nH]nc(Nc2ncnc3cc(OCC4CCCO4)c(S(=O)(=O)C(C)(C)C)cc23)c1C (stereo not shown) [Example 4, 6-(tert-Butylsulfonyl)-N-(4,5-dimethyl-1H-pyrazol-3-yl)-7-((tetrahydrofuran-2-yl)methoxy)quinazolin-4-amine]",IC50,[1],63.1 nM
same,IC50,[2]; [4],10 nM
